{
  "source": "patent US20260193668A1",
  "about": "“NOVEL PEPTIDES AND USE THEREOF FOR MODULATING PROTEIN ACCUMULATION” (UNIVERSITE TOULOUSE III - PAUL SABATIER, priority 2022, published 2026)",
  "key": {"[1]": {"test_system": "AP2 mRNA", "experiment": "Quantification by qRT PCR of AP2 expression in treated plants", "assay_type": "in vivo, Arabidopsis thaliana", "settings": "100 μM peptide", "procedure": "(§1) Quantification by qRT PCR of the expression of different genes in response to 100 μM of different peptides\n(§2) (a) Treatment of plants with the peptide AtCOI1alt1; (b) Treatment of plants with the peptide AtAP2alt1; (c) Treatment of plants with the peptide AtEIN2alt1 (d) Treatment of plants with the peptide AtCPK3alt1.\n(§3) Quantification of mRNAs was performed by qRT-PCR using appropriate primer pairs selected from the sequences: SEQ ID NOs: 367 to 374. Expression levels for the controls were set at 100. The primers used for the A. euteiches assays are described in Camborde et al (New Phytol. 233:2232-2248. 2022)."}, "[2]": {"test_system": "AP2", "experiment": "Quantification of AP2 by Western blot in A. thaliana leaves", "assay_type": "in vivo, Arabidopsis thaliana", "settings": "A. thaliana leaves treated for 5 days with 100 μM peptide", "procedure": "(§4) (a) Schematic representation of a gene encoding altORFs producing altPEPs. (b) ORF ranking distribution of altPEPs detected by MS. (c) Frequency of altPEPs detected by MS by length ranges. (d) Main root length of A. thaliana seedlings treated with 100 μM peptide for 4 days. (e, f) Quantification of DCL1 expression by RT-qPCR (e) and Western blot using anti-DCL1 antibodies (f) in A. thaliana leaves treated for 5 days with 100 μM peptide. (g, h) Quantification of COI1, AP2, CPK3 (g) and EIN2 (h) by Western blot using specific antibodies in A. thaliana leaves treated for 5 days with 100 μM peptide.\n(§5) N. benthamiana plants were treated by spraying the leaves 24 h before harvesting. For Luc assays, 100 μL of MS/2 liquid medium containing the peptides was added to each well. 5 μL of luciferin was added and luciferase activity was read 30 min later using a spectrophotometer. All other assays were performed by spraying or watering the plants. To quantify the protein level induced by cPEPs in Arabidopsis, rosettes were sprayed daily with 100 μM of peptide or its control for 5 days. Leaves were harvested 6 h after the last treatment for western blot analysis. […] Chlorophyll content was measured using the SPAD chlorophylometer (Konica Minolta). Leaf area was measured using ImageJ software. […]"}, "[3]": {"test_system": "A. thaliana seedlings", "experiment": "Main root length of A. thaliana seedlings treated with altPEP", "assay_type": "in vivo, Arabidopsis thaliana", "settings": "A. thaliana seedlings treated with 100 μM peptide for 4 days", "procedure": "as §4\nTo study the biological roles of altPEPs, two types of altPEPs were studied: one well conserved among Brassicaceae, and corresponding to the altORF18 of the DCL1 gene (FIG. 3c), and another, corresponding to the first altORF of the COI1 gene, but not conserved among Brassicaceae. A. thaliana seedlings were treated with the peptide AtDCL1alt18 (SEQ ID NO: 224) and root development analysed, since dcl mutants show longer main roots (Park, W., et al. Curr. Biol. 12, 1484-1495 (2002))."}, "[4]": {"test_system": "DCL1", "experiment": "Western blot using anti-DCL1 antibodies in A. thaliana leaves", "assay_type": "in vivo, Arabidopsis thaliana", "settings": "A. thaliana leaves treated for 5 days with 100 μM peptide", "procedure": "as §4, §5"}, "[5]": {"test_system": "DCL1 mRNA", "experiment": "Quantification of DCL1 expression by RT-qPCR in A. thaliana leaves", "assay_type": "in vivo, Arabidopsis thaliana", "settings": "A. thaliana leaves treated for 5 days with 100 μM peptide", "procedure": "as §4, §3\nN. benthamiana plants were treated by spraying the leaves 24 h before harvesting. […] 5 μL of luciferin was added and luciferase activity was read 30 min later using a spectrophotometer. […] To quantify the protein level induced by cPEPs in Arabidopsis, rosettes were sprayed daily with 100 μM of peptide or its control for 5 days. […] Chlorophyll content was measured using the SPAD chlorophylometer (Konica Minolta). Leaf area was measured using ImageJ software. […]"}, "[6]": {"test_system": "EIN2", "experiment": "Quantification of EIN2 by Western blot in A. thaliana leaves", "assay_type": "in vivo, Arabidopsis thaliana", "settings": "A. thaliana leaves treated for 5 days with 100 μM peptide", "procedure": "as §4, §5"}, "[7]": {"test_system": "EIN2 mRNA", "experiment": "Quantification by qRT PCR of EIN2 expression in treated plants", "assay_type": "in vivo, Arabidopsis thaliana", "settings": "100 μM peptide", "procedure": "as §1, §2, §3"}, "[8]": {"test_system": "A. thaliana seedlings", "experiment": "Length of primary roots of A. thaliana seedlings treated with cPEP", "assay_type": "in vivo, Arabidopsis thaliana", "settings": "versus Scrambled cPEPdcl1", "procedure": "(§6) (a, b) Length of primary roots of A. thaliana seedlings treated with a Scrambled cPEPdcl1 or with a cPEPdcl1. (c) Relative chlorophyll content of A. thaliana seedlings treated with the corresponding peptide. (d) Resumption of growth of A. thaliana seedlings after heat shock at 45° C. for 45 min and treated with the corresponding peptide. (e) Relative lesion area of A. thaliana seedlings infected with B. cinerea and treated with the indicated peptide. (f) Measurement of the flowering day of A. thaliana plants treated with the indicated peptides. (g, h) Flowering day of A. thaliana plants treated with an irrelevant peptide or a mixture of cPEPs (targeting EIN2, BR11, BAK1 and WUS). (i, j) Leaf area of A. thaliana plants treated with an irrelevant peptide or a mixture of cPEPs (targeting EIN2, BR11, BAK1 and WUS).\nThe work then focused on different A. thaliana proteins involved in different plant functions. […] 12:479-492, 2000), improved the viability of seedlings to heat shock (FIG. 7d). In parallel, several A. thaliana plant defence regulators were targeted, namely AGB1 (SEQ ID NO: 195), MAPKKK3 (SEQ ID NO: 187), JAR1 (SEQ ID NO: 192), MAPKKK5 (SEQ ID NO: 188), ABCG34 (SEQ ID NO: 194) and CPK3 (SEQ ID NO: 162). […] Next, several cPEPs were designed targeting different proteins involved in plant development by measuring the day of flowering. […]"}, "[9]": {"test_system": "A. thaliana seedlings", "experiment": "Heat shock resistance test on A. thaliana seedlings", "assay_type": "in vivo, Arabidopsis thaliana", "settings": "100 μM peptide, 45° C. for 45 min", "procedure": "as §6\nN. benthamiana plants were treated by spraying the leaves 24 h before harvesting. For Luc assays, 100 μL of MS/2 liquid medium containing the peptides was added to each well. 5 μL of luciferin was added and luciferase activity was read 30 min later using a spectrophotometer. […] To quantify the protein level induced by cPEPs in Arabidopsis, rosettes were sprayed daily with 100 μM of peptide or its control for 5 days. […] Chlorophyll content was measured using the SPAD chlorophylometer (Konica Minolta). Leaf area was measured using ImageJ software. […]"}, "[10]": {"test_system": "M. truncatula roots", "experiment": "Quantification of nodules on M. truncatula roots", "assay_type": "in vivo, Medicago truncatula", "settings": "versus irrelevant peptide", "text": "(a) FRET-FLIM analysis of the interaction between cPEPnsp1-FAM and NSP1 (left) or NSP1ΔcPEP (right) in planta. (b) qRT-PCR quantification of NSP1 expression in M. truncatula roots treated with cPEPnsp1 or Scrambled cPEPnsp1. (c) GUS quantification of peptide-treated M. truncatula roots carrying the Pro NSP1-NSP1-GUS fusion. (d, e) Quantification of NSP1 expression in N. benthamiana leaves after infiltration of different constructs: ‘wild type’ i.e. version of NSP1 wherein the cPEP sequence has been deleted (NSP1 ΔcPEP) or version of NSP1 wherein the cPEP sequence has been replaced by an artificial sequence (NSP1 ΔcPEP-cPEPartificial), with an empty vector (control) or cPEPnsp1 or cPEPartificial. (f, g) Formation of lateral roots of M. truncatula WT seedlings, nsp1 or overexpressing NSP1, in response to cPEPnsp1 or Scrambled cPEPnsp1. (h, i) Quantification of nodules on roots of M. truncatula roots treated with an irrelevant peptide or cPEPskl. […]\nIn order to verify whether cPEPs can target any protein, the activity of 12 cPEPs targeting 12 different proteins for which antibodies were available was studied and validated in three different plant species. The question was whether the increase in the quantity of proteins observed after treatment with cPEP was sufficient to modulate plant development. […]"}},
  "data": [
    {"substance": "AtAP2alt1 (MGISYLGLWETSLLRWI; AtAP2alt1)", "values": [
      {"measurement": "AP2 mRNA expression (qRT PCR)", "setting": "[1]", "value": "without detecting any change"},
      {"measurement": "AP2 protein level (Western blot)", "setting": "[2]", "value": "increase"}
    ]},
    {"substance": "AtDCL1alt18 (MLMLNPPRHHGILQRPTCLSLLLTIRLWNP; AtDCL1alt18)", "values": [
      {"measurement": "root development (main root length)", "setting": "[3]", "value": "decrease in root development"},
      {"measurement": "DCL1 protein accumulation (Western blot)", "setting": "[4]", "value": "increased"},
      {"measurement": "DCL1 mRNA expression (qRT-PCR)", "setting": "[5]", "value": "no effect"}
    ]},
    {"substance": "AtEIN2alt1 (MGCKYRRRCSFRV; AtEIN2alt1)", "values": [
      {"measurement": "EIN2 protein level (Western blot)", "setting": "[6]", "value": "increase"},
      {"measurement": "EIN2 mRNA expression (qRT PCR)", "setting": "[7]", "value": "without detecting any change"}
    ]},
    {"substance": "cPEPdcl1 (SRAFGSVFFSGD; cPEPdcl1)", "values": [
      {"measurement": "primary root growth", "setting": "[8]", "value": "reduction"}
    ]},
    {"substance": "cPEPhsp101 (MQDMLNSLLCI; cPEPhsp101) [SEQ ID NO: 404, cPEP targeting the A. thaliana HSP101 protein]", "values": [
      {"measurement": "viability of seedlings to heat shock", "setting": "[9]", "value": "improved"}
    ]},
    {"substance": "cPEPskl (TETVGHEDAS; cPEPskl)", "values": [
      {"measurement": "amount of nodules", "setting": "[10]", "value": "decrease"}
    ]}
  ]
}
